Test results: patent US20080175926A1, “Process for treating storage reservoirs contaminated with mycotoxins” (priority 2006, published 2008)

What was measured:
[1] = system: Penicillium spp.; assay: Thermal fogging with eugenol of empty grain storage cells; Airtest trapping of Penicillium colonies on Petri dishes; conditions: for Penicillium contamination (number colonies/Petri dish) After treatment: Airtest 100 l, 10 days after treatment
Experimental: (§1) Six cells (noted ‘20’, ‘L’, ‘12’, ‘F’, ‘8’ and ‘I’) were studied. These are concrete cells with a conical bottom (bottom for completely emptying the cell and eliminating more readily the debris and dust before ensilaging the next harvest). The cells identified by a number have a capacity of 350 t, those identified by a letter have a capacity of 50 t. The level of contamination of the six cells was evaluated by trapping the contaminated spores or particles using an Airtest introduced into the cell via an access hatch located at the base of the cell.
(§2) The Petri dishes 90 mm in diameter, placed in the Airtest and constituting the trap, contained a Malt Agar+Triton medium; the addition of triton modifies the development of the fungal colonies, which remain compact and are easy to count. The volume of air passing through the Airtest was set at 100 I, except for one cell in which we tested 4 different volumes of air (10 l, 20 l, 40 l, 100 l). For each mode, three repetitions (3Petri dishes) were carried out.
(§3) Two types of trapping were carried out; atmospheric trapping and trapping on the […]. In fact, these walls have rough patches and can retain mould spores or infected particles. The Airtest was placed approximately 5 mm from the wall.
(§4) […]
(§5) The eugenol thermal fogging treatment was carried out on a platform on which the thermal fogging device was installed.
(§6) 4 l and 20 l of eugenol, respectively, were subjected to thermal fogging at 230° C. (for approximately ¾ h) in cell L (≈50 m^3) and in cell 12 (≈350 m^3).

[2] = system: Aspergillus spp.; assay: Thermal fogging with eugenol of empty grain storage cells; Airtest trapping of Aspergillus colonies on Petri dishes; conditions: for Aspergillus contamination (number colonies/Petri dish) After treatment: Airtest 100 l, 10 days after treatment
Experimental: as §1, §2, §3, §4, §5, §6

[3] = thermal fogging of eugenol in the cells, atmospheric and wall contamination

## C=CCc1ccc(O)c(OC)c1 [eugenol]
[1]; cell 12 (wheat, ≈350 m^3), 20 l eugenol thermal fogging at 230° C., atmosphere trapping, before treatment 1240
  Penicillium contamination (number colonies/Petri dish) After treatment: 400 number colonies/Petri dish
[1]; cell 12 (wheat, ≈350 m^3), 20 l eugenol thermal fogging at 230° C., wall trapping, before treatment 1860
  Penicillium contamination (number colonies/Petri dish) After treatment: 207 number colonies/Petri dish
[1]; cell L (wheat, ≈50 m^3), 4 l eugenol thermal fogging at 230° C., atmosphere trapping, before treatment 2650
  Penicillium contamination (number colonies/Petri dish) After treatment: 106 number colonies/Petri dish
[1]; cell L (wheat, ≈50 m^3), 4 l eugenol thermal fogging at 230° C., wall trapping, before treatment 7500
  Penicillium contamination (number colonies/Petri dish) After treatment: 85 number colonies/Petri dish
[1]; cells L and 12, thermal fogging with eugenol at 230° C., atmospheric and wall contamination
  level of Penicillium spp. contamination after treatment (in words): clear decrease
[1]; [3]
  effectiveness against Penicillium spp. present in the grain storage cells (in words): very effective
[2]; cell 12 (wheat, ≈350 m^3), 20 l eugenol thermal fogging at 230° C., atmosphere trapping, before treatment 77
  Aspergillus contamination (number colonies/Petri dish) After treatment: 0 number colonies/Petri dish
[2]; cell 12 (wheat, ≈350 m^3), 20 l eugenol thermal fogging at 230° C., wall trapping, before treatment 85
  Aspergillus contamination (number colonies/Petri dish) After treatment: 0 number colonies/Petri dish
[2]; cell 12, 20 l eugenol thermal fogging at 230° C.
  Aspergillus spp. contamination after treatment (in words): completely controlled
[2]; cell L (wheat, ≈50 m^3), 4 l eugenol thermal fogging at 230° C., atmosphere trapping, before treatment 0
  Aspergillus contamination (number colonies/Petri dish) After treatment: 0 number colonies/Petri dish
[2]; cell L (wheat, ≈50 m^3), 4 l eugenol thermal fogging at 230° C., wall trapping, before treatment 0
  Aspergillus contamination (number colonies/Petri dish) After treatment: 0 number colonies/Petri dish
[2]; [3]
  effectiveness against Aspergillus spp. present in the grain storage cells (in words): very effective
